Among the data in ChEMBL document CHEMBL3593233, “Caryophyllene sesquiterpenes from the marine-derived fungus Ascotricha sp. ZJ-M-5 by the one strain-many compounds strategy” (2014) are GI50 values, retold here.

A value given as a limit tells only on which side of the number the result lay.

One test has as its system K562. The experiment in a line: Growth inhibition of human K562 cells after 72 hrs by trypan blue assay. The class given is functional. Particulars: K562, 72 h.
Another test has as its system HL-60. The experiment in a line: Growth inhibition of human HL60 cells after 72 hrs by trypan blue assay. The class given is functional. Conditions: HL-60, 72 h.

On to `CC(=O)O[C@H]1C/C(C)=C/[C@@H](O)[C@H](O)[C@H]2[C@H](O)O[C@]13[C@@H]2CC3(C)C`, for which the GI50 in the test on K562 was 10.1 µM; in the test on HL-60, 6.9 µM.
With `CO[C@@H]1[C@H]2[C@H](O)O[C@@]3([C@@H](OC(C)=O)C/C(C)=C/[C@H]1O)[C@@H]2CC3(C)C`, the GI50 in the test with K562 was determined as 12.3 µM; in the test on HL-60, 8.5 µM.
Take `CC(=O)O[C@H]1C/C(C)=C/[C@@H](O)/C=C(/CO)[C@H]2CC(C)(C)[C@]12O`: the GI50 with K562 and in the test with HL-60 was over 100 µM each time.
